Laboratory results from US11053218B2, “3-(1-oxoisoindolin-2-yl)piperidine-2,6-dione derivatives and uses thereof” (Novartis AG, priority 2017, dated 2021).
Like-named read-outs stand apart in the source and are kept apart here.

Legend:
Assay type in all cases: cell-based
IKZF1 = IKZF1 (Homo sapiens, UniProt Q13422+Q96SW2); assay: Prolabel quantification of IKZF1 protein levels in 293GT cells; conditions: Prolabel assay, read-out: IKZF1 EC50
GSPT1 = GSPT1 (Homo sapiens, UniProt P15170+Q96SW2); assay: Prolabel quantification of GSPT1 protein levels in 293GT cells; conditions: Prolabel assay, read-out: GSPT1 EC50
GSPT1, sequence (P15170 whole entry, the tested form may be a part): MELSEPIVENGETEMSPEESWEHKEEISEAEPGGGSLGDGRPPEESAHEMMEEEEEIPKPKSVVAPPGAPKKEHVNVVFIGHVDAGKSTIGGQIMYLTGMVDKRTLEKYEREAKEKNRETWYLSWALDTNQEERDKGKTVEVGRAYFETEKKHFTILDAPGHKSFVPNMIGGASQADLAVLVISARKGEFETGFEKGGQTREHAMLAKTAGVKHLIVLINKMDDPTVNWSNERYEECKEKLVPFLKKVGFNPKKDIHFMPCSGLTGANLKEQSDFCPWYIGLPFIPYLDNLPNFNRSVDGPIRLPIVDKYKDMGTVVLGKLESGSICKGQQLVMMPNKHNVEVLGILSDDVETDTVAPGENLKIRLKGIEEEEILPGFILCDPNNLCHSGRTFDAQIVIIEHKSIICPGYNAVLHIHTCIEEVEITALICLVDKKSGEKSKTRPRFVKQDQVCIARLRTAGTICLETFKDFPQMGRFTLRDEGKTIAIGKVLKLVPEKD
GSPT1, sequence (Q96SW2 whole entry, the tested form may be a part): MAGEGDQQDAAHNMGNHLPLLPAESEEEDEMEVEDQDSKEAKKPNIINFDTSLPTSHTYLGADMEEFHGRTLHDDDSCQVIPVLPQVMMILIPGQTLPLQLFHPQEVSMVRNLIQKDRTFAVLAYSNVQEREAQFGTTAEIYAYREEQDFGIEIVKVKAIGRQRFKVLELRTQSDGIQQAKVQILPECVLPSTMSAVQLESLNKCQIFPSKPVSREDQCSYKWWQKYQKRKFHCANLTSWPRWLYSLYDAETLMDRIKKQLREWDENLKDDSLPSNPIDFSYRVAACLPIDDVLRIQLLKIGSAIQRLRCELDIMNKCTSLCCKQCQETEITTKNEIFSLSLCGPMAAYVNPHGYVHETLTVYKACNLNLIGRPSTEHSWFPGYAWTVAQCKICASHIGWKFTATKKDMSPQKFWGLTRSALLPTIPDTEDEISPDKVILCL
GSPT1, sequence (Q16531 whole entry partner, the tested form may be a part): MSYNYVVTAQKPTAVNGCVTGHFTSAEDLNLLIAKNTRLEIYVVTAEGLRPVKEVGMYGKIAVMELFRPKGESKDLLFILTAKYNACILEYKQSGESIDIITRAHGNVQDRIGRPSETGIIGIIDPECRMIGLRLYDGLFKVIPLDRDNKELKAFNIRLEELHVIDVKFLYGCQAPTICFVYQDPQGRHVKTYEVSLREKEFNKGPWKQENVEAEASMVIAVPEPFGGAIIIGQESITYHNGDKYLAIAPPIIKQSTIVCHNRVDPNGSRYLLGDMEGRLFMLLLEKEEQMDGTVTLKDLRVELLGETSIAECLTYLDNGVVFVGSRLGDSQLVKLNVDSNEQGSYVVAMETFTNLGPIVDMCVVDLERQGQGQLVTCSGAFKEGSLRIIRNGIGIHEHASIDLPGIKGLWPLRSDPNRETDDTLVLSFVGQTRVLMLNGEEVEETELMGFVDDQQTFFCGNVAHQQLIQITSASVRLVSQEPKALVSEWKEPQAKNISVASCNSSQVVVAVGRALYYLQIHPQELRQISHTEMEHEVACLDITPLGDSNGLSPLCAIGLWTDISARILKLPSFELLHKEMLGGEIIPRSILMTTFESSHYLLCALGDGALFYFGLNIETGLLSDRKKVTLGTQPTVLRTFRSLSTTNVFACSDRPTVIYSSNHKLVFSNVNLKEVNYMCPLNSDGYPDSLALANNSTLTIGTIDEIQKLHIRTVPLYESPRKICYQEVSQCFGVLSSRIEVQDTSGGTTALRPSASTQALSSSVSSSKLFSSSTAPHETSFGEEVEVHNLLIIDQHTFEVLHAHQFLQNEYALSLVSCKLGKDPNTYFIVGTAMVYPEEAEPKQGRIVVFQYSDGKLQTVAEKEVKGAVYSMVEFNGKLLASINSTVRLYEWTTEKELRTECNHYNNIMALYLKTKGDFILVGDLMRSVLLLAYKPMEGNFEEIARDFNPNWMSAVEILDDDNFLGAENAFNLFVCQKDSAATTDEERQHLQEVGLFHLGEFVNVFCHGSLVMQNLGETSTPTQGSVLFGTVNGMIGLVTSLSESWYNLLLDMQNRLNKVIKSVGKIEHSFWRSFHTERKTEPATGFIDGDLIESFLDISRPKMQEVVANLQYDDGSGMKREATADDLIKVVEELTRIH
Method: The Prolabel system from DiscoverX was used to develop high-throughput and quantitative assays to measure changes in IKZF1, IKZF2 and GSPT1 protein levels in response to compounds. The prolabel tag was derived from the alpha fragment of beta galactosidase and has the following protein sequence: mssnslavvlqrrdwenpgvtqlnrlaahppfaswrnseeartdrpsqqlrslnge. The complementary fragment of beta-galactosidase (from DiscoverX), is added to the prolabel tag to form an active beta galactosidase enzyme whose activity can be precisely measured. In this way, the levels of a fusion protein with the prolabel tag can be quantified in cell lysates.
Lentiviral vectors, based on the Invitrogen pLenti6.2/V5 DEST backbone, were constructed that placed the prolabel tag upstream of IKZF1, IKZF2 or GSPT1 and expressed the fusion protein from a CMV promoter.
To ensure moderate and consistent expression of the prolabel fusion proteins across all cells in the population, stable cell lines were constructed from cells expressing a single copy of the construct. Lentivirus packaged with the constructs was made using the Virapower kit from Invitrogen.
The levels of prolabel tagged fusion proteins in compound treated cell lines were measured as follows:
Day 1, Cells were diluted to 1.0×10^6 cells/ml in normal growth medium. 17.5 μL of cells were plated in each well of a solid white 384 well plate. Plates were incubated overnight in a 37° C. tissue culture incubator.
Day 2, Serial dilutions of compounds were made in 384 well plates from 10 mM stocks. 15 μL of DMSO was added to each well of a 384 well plate. In the first column 15 μL of stock compound was added. The solution was mixed and 15 μL was transferred to the next column. This was repeated until 20 two-fold dilutions were prepared. 2.5 μL of diluted compounds were transferred into 60 μL of cell culture medium in another 384 well plate, and mixed well. 2.5 μL of this mixture was added to the plated cells. The final DMSO concentration was 0.5% and the highest concentration of compound was 50 μM. Plates were incubated overnight (e.g., about 14 h, 18 h, or 24 h) in a 37° C. tissue culture incubator.
Day 3, Plates were removed from the incubator and allowed to equilibrate at rt for 30 minutes. Prolabel substrate (DiscoverX PathHunter Prolabel Detection Kit, User manual: 93-0180) was added as described by the manufacturers protocols. Plates were incubated at rt for three hours and luminescence was read using an Envision reader (Perkin Elmer) Data was analyzed and visualized using the Spotfire software package.

IKZF2 = IKZF2 (Homo sapiens, UniProt Q96SW2+Q9UKS7); assay: Prolabel quantification of IKZF2 protein levels in 293GT cells
IKZF2, sequence (Q9UKS7 whole entry): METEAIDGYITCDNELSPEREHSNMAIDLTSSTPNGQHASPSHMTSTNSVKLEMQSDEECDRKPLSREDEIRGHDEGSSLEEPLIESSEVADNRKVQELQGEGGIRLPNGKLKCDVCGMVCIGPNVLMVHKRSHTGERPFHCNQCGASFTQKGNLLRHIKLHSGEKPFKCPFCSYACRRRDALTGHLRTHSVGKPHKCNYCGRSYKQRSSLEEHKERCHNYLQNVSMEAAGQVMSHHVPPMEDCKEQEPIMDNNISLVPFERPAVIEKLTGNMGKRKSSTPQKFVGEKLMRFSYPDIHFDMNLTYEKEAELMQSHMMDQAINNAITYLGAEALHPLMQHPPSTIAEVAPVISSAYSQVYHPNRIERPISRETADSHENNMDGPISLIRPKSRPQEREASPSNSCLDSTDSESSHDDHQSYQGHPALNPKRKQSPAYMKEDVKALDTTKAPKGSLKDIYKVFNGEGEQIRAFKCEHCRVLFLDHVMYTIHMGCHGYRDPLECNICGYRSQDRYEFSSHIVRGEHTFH
IKZF2, sequence (Q96SW2 whole entry): as the sequence (Q96SW2 whole entry, the tested form may be a part) above
IKZF2, sequence (Q16531 whole entry partner): as the sequence (Q16531 whole entry partner, the tested form may be a part) above

[1] = 24 h, 10 μM, 24 h, 293GT cells; read-out: IKZF2 % protein reduction at 10 μM, 24 h
[2] = Prolabel assay, 293GT cells; read-out: IKZF2 EC50
[3] = 10 μM, 24 h, 293GT cells; read-out: IKZF2 % protein reduction at 10 μM, 24 h
[4] = Prolabel assay in HEK293GT cells, bar graph

IKZF1, sequence (Q13422 whole entry): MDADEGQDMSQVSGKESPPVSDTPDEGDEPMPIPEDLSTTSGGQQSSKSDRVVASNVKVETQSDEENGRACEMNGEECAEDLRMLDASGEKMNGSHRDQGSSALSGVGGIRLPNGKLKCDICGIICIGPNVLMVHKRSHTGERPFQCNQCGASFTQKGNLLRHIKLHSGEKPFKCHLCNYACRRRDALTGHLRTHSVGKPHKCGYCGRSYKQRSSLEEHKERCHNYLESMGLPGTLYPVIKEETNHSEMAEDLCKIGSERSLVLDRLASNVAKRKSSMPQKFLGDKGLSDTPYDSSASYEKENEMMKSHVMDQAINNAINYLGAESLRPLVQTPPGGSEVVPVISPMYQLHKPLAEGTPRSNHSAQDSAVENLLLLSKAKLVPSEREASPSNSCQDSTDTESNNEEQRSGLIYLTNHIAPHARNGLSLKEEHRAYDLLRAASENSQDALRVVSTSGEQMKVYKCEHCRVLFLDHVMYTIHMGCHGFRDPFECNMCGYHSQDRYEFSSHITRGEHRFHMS
IKZF1, sequence (Q96SW2 whole entry): as the sequence (Q96SW2 whole entry, the tested form may be a part) above
IKZF1, sequence (Q16531 whole entry partner): as the sequence (Q16531 whole entry partner, the tested form may be a part) above

Row | SMILES | DC50 (IKZF1) | DC50 (GSPT1) | inhibition at 10 µM (IKZF2; [1]) | DC50 (IKZF2; [2]) | IKZF2 protein levels as compared to the control (DMSO) (IKZF2; [4]) | inhibition at 10 µM (IKZF2; [3])
1 | O=C1CCC(N2Cc3cc([C@@H]4CCCNCC4)ccc3C2=O)C(=O)N1 (single isomer, unassigned) [Compound I-166, 3-(5-(azepan-4-yl)-1-oxoisoindolin-2-yl)piperidine-2,6-dione] | > 50 µM | > 50 µM | 25% |  |  | 
2 | O=C1CCC(N2Cc3cc(C4CCCNCC4)ccc3C2=O)C(=O)N1 (single isomer, unassigned) [Compound I-167, 3-(5-(azepan-4-yl)-1-oxoisoindolin-2-yl)piperidine-2,6-dione] | > 50 µM | > 50 µM | 25% |  |  | 
3 | O=C1CCC(N2Cc3cc(C4CCN(CC5CCCCC5)CC4)ccc3C2=O)C(=O)N1 (stereo not shown) [Compound I-11, 3-(5-(1-(cyclohexylmethyl)piperidin-4-yl)-1-oxoisoindolin-2-yl)piperidine-2,6-dione] | > 50 µM | > 50 µM | 65% | 0.013 µM |  | 
4 | N#Cc1ccc(CN2CCC(c3ccc4c(c3)CN(C3CCC(=O)NC3=O)C4=O)CC2)cc1 (stereo not shown) [Compound I-31, 3-(5-(1-(4-nitrilebenzyl)piperidin-4-yl)-1-oxoisoindolin-2-yl)piperidine-2,6-dione] | > 50 µM | > 50 µM |  | 0.004 µM |  | 60%
5 | COc1ccc(CN2CCC(c3ccc4c(c3)CN(C3CCC(=O)NC3=O)C4=O)CC2)cc1 (stereo not shown) [Compound I-39, 3-(5-(1-(4-methoxybenzyl)piperidin-4-yl)-1-oxoisoindolin-2-yl)piperidine-2,6-dione] | > 50 µM | > 50 µM |  |  |  | 45%
6 | COc1ncc(CN2CCC(c3ccc4c(c3)CN(C3CCC(=O)NC3=O)C4=O)CC2)cn1 (stereo not shown) [Compound I-68, 3-(5-(1-((2-methoxypyrimidin-5-yl)methyl)piperidin-4-yl)-1-oxoisoindolin-2-yl)piperidine-2,6-dione] | > 50 µM | > 30 µM | 50% | 0.003 µM | decreased | 
7 | O=C1CCC(N2Cc3cc(C4CCN(Cc5ccc(OC(F)F)cc5)CC4)ccc3C2=O)C(=O)N1 (stereo not shown) [Compound I-77, 3-(5-(1-(4-(difluoromethoxy)benzyl)piperidin-4-yl)-1-oxoisoindolin-2-yl)piperidine-2,6-dione] | > 30 µM | > 30 µM | 80% | 0.007 µM |  | 
8 | CC(=O)Nc1ccc(CN2CCC(c3ccc4c(c3)CN(C3CCC(=O)NC3=O)C4=O)CC2)cc1 (stereo not shown) [Compound I-86, N-(4-((4-(2-(2,6-dioxopiperidin-3-yl)-1-oxoisoindolin-5-yl)piperidin-1-yl)methyl)phenyl)acetamide] | > 30 µM | > 30 µM | 75% | 0.029 µM |  | 
9 | O=C1CCC(N2Cc3cc(C4CCN(Cc5ccc6c(c5)OCCCO6)CC4)ccc3C2=O)C(=O)N1 (stereo not shown) [Compound I-88, 3-(5-(1-((3,4-dihydro-2H-benzo[b][1,4]dioxepin-7-yl)methyl)piperidin-4-yl)-1-oxoisoindolin-2-yl)piperidine-2,6-dione] | > 30 µM | > 30 µM | 70% | 0.005 µM |  | 
10 | CCC(C)(C)c1ccc(CN2CCC(c3ccc4c(c3)CN(C3CCC(=O)NC3=O)C4=O)CC2)cc1 (stereo not shown) [Compound I-89, 3-(1-oxo-5-(1-(4-(tert-pentyl)benzyl)piperidin-4-yl)isoindolin-2-yl)piperidine-2,6-dione] | > 30 µM | > 30 µM | 70% | 0.033 µM |  | 
11 | O=C1CCC(N2Cc3cc(C4CCN(Cc5ccc(-c6ccccc6)cc5)CC4)ccc3C2=O)C(=O)N1 (stereo not shown) [Compound I-90, 3-(5-(1-([1,1′-biphenyl]-4-ylmethyl)piperidin-4-yl)-1-oxoisoindolin-2-yl)piperidine-2,6-dione] | > 50 µM | > 50 µM |  | 0.007 µM |  | 65%
12 | O=C1CCC(N2Cc3cc(C4CCN(Cc5ccc(-n6cccn6)cc5)CC4)ccc3C2=O)C(=O)N1 (stereo not shown) [Compound I-91, 3-(5-(1-(4-(1H-pyrazol-1-yl)benzyl)piperidin-4-yl)-1-oxoisoindolin-2-yl)piperidine-2,6-dione] | > 30 µM | > 30 µM | 75% | 0.018 µM |  | 
13 | O=C1CCC(N2Cc3cc(C4CCN(Cc5ccc(Cl)cc5)CC4)ccc3C2=O)C(=O)N1 (stereo not shown) [Compound I-97, 3-(5-(1-(4-chlorobenzyl)piperidin-4-yl)-1-oxoisoindolin-2-yl)piperidine-2,6-dione] | > 50 µM | > 50 µM | 55% | 0.027 µM |  | 

Now from value to compound, other results behind:

Row | DC50 (IKZF1) | DC50 (GSPT1) | inhibition at 10 µM (IKZF2; [1]) | DC50 (IKZF2; [2]) | IKZF2 protein levels as compared to the control (DMSO) (IKZF2; [4]) | SMILES | inhibition at 10 µM (IKZF2; [3])
14 | > 30 µM | > 30 µM | 75% | 0.017 µM |  | N#Cc1cccc(CN2CCC(c3ccc4c(c3)CN(C3CCC(=O)NC3=O)C4=O)CC2)c1 (stereo not shown) [Compound I-36, 3-((4-(2-(2,6-dioxopiperidin-3-yl)-1-oxoisoindolin-5-yl)piperidin-1-yl)methyl)benzonitrile] | 
15 | > 30 µM | > 30 µM | 80% | 0.012 µM | decreased | O=C1CCC(N2Cc3cc(C4CCN(Cc5cccc6[nH]ncc56)CC4)ccc3C2=O)C(=O)N1 (stereo not shown) [Compound I-43, 3-(5-(1-((1H-indazol-4-yl)methyl)piperidin-4-yl)-1-oxoisoindolin-2-yl)piperidine-2,6-dione] | 
16 | > 30 µM | > 30 µM | 80% | 0.031 µM |  | O=C1CCC(N2Cc3cc(C4CCN(Cc5cccnc5)CC4)ccc3C2=O)C(=O)N1 (stereo not shown) [Compound I-59, 3-(1-oxo-5-(1-(pyridin-3-ylmethyl)piperidin-4-yl)isoindolin-2-yl)piperidine-2,6-dione] | 
17 | > 30 µM | > 30 µM | 75% | 0.025 µM |  | O=C1CCC(N2Cc3cc(C4CCN(Cc5ccc(F)c(F)c5)CC4)ccc3C2=O)C(=O)N1 (stereo not shown) [Compound I-64, 3-(5-(1-(3,4-difluorobenzyl)piperidin-4-yl)-1-oxoisoindolin-2-yl)piperidine-2,6-dione] | 
18 | > 30 µM | > 30 µM | 75% | 0.012 µM |  | O=C1CCC(N2Cc3cc(C4CCN(Cc5ccc(C(F)F)cc5)CC4)ccc3C2=O)C(=O)N1 (stereo not shown) [Compound I-70, 3-(5-(1-(4-(difluoromethyl)benzyl)piperidin-4-yl)-1-oxoisoindolin-2-yl)piperidine-2,6-dione] | 
19 | > 30 µM | > 30 µM | 80% | 0.027 µM |  | NC(=O)c1ccc(CN2CCC(c3ccc4c(c3)CN(C3CCC(=O)NC3=O)C4=O)CC2)cc1 (stereo not shown) [Compound I-71, 4-((4-(2-(2,6-dioxopiperidin-3-yl)-1-oxoisoindolin-5-yl)piperidin-1-yl)methyl)benzamide] | 
20 | 0.14 µM | > 30 µM | 80% | 0.023 µM |  | CC(C)(C)c1cccc(CN2CCC(c3ccc4c(c3)CN(C3CCC(=O)NC3=O)C4=O)CC2)c1 (stereo not shown) [Compound I-107, 3-(5-(1-(3-(tert-butyl)benzyl)piperidin-4-yl)-1-oxoisoindolin-2-yl)piperidine-2,6-dione] | 
